Each block holds one compound with its values, some of them ahead of it.
What was measured:
[1] = Crystal size distribution (CSD) by laser diffraction (Mastersizer 2000, Fraunhofer model); format: physicochemical
[2] = as above; format: physicochemical; remark: listed apart in the source
Description: The solid, preferably crystalline, particles obtainable by a process as described above advantageously have a high purity and, furthermore, a narrow particle size range, such as were not obtainable by prior art processes. The span, defined as (d90-d10)/d50, wherein d50, d10, and d90 can be understood to mean that 50%, 10%, and 90%, respectively, of the particles having a particle size smaller than or equal to the indicated value as determined by conventional laser diffraction technique, can even be below 1.4, which is exceptional for a solidification process such as a crystallisation process. In general, for the process according to the present invention the span preferably is below 3. More preferably, the span is below 2.5, and most preferably below 2.
The following procedure was applied for the production of sodium chloride crystals using the antisolvent crystallisation process according to the present invention. All experiments were performed at ambient conditions. The resulting crystals were analysed by SEM (Scanning Electron Microscopy) and CSD (Crystal Size Distribution) measurements by means of laser diffraction using a Mastersizer 2000 apparatus of Malvern Instruments with a Fraunhofer model for data analysis.
The following procedure was applied for the production of 3-ketodesogestrel using the antisolvent crystallisation of the present invention. All experiments were performed at ambient conditions. The resulting crystals were analysed using CSD measurements that were measured via conventional laser diffraction technique.
A 3-ketodesogestrel solution was prepared of 97 g 3-ketodesogestrel in 5 l of ethanol. Water was used as antisolvent. For dosing, a Microdyn® type SE020TP1N membrane with an average pore size of 1 μm was used. The 3-ketodesogestrel solution was dosed from the outside of the membrane to the antisolvent on the inside of the membrane. The speed of the antisolvent was set to 45 l/hr. The speed of the 3-ketodesogestrel flow was set to 0.41 l/hr. Again, a gear pump was used to control the velocities. The crystals thus obtained were collected using filtration, washed with 100% ethanol, and subsequently dried in an oven. […] The span was determined to be 1.7. Herein d50, d10; and d90 can be understood to mean that 50%, 10%, and 90%, respectively, of the particles have a particle size smaller than or equal to the indicated value.
The following procedure was applied for the production of progesteron. All experiments were performed at ambient conditions. The resulting crystals were analysed by CSD measurements by means of laser diffraction using a Mastersizer 2000 apparatus of Malvern Instruments with a Fraunhofer model for data analysis.

[3] = Example 1, 25 wt % NaCl solution 60 l/hr into ethanol antisolvent 50 l/hr, SPG membrane pore-size 1.1 μm
[4] = Entry 1, antisolvent 100 wt % water, 0 wt % ethanol, 45 l/h, progesteron solution 50 g per litre ethanol, 12 l/h, Microdyn membrane 1 μm
[5] = Entry 2, antisolvent 85 wt % water, 15 wt % ethanol, 45 l/h, progesteron solution 50 g per litre ethanol, 12 l/h, Microdyn membrane 1 μm
[6] = Entry 3, antisolvent 70 wt % water, 30 wt % ethanol, 45 l/h, progesteron solution 50 g per litre ethanol, 12 l/h, Microdyn membrane 1 μm
[7] = Entry 1, antisolvent flow 45 l/h, 3-ketodesogestrel flow 0.7 l/h, Microdyn membrane pore size 1 μm
[8] = Entry 2, antisolvent flow 45 l/h, 3-ketodesogestrel flow 0.4 l/h, Microdyn membrane pore size 1 μm
[9] = Entry 3, antisolvent flow 45 l/h, 3-ketodesogestrel flow 6.2 l/h, Microdyn membrane pore size 1 μm
[10] = Entry 4, antisolvent flow 90 l/h, 3-ketodesogestrel flow 0.7 l/h, Microdyn membrane pore size 1 μm
[11] = Entry 5, antisolvent flow 90 l/h, 3-ketodesogestrel flow 5.0 l/h, Microdyn membrane pore size 1 μm
[12] = Entry 6, antisolvent flow 45 l/h, 3-ketodesogestrel flow 10 l/h, Microdyn membrane pore size 1 μm
[13] = Entry 7, antisolvent flow 45 l/h, 3-ketodesogestrel flow 42 l/h, Microdyn membrane pore size 1 μm
[14] = Entry 8, antisolvent flow 45 l/h, 3-ketodesogestrel flow 20 l/h, Microdyn membrane pore size 1 μm
[15] = Example 2, 97 g in 5 l ethanol, flow 0.41 l/hr, water antisolvent 45 l/hr, Microdyn membrane 1 μm
[16] = Example 5, 34 mg tibolone in 1 kg ethanol, 65 l/hr, antisolvent 90 wt % water/10 wt % ethanol, 151/hr, SPG membrane 1.1 μm

SMILES: [Cl-].[Na+] [sodium chloride]
Span [1, 3]: 1.5 | average crystal size d50 [2, 3]: 40 μm | Span ([2]; Example 1 additional experiment, stirring rod 630 rpm inside membrane, salt solution 40 l/hr, ethanol 50 l/hr): 1.2

Span [1, 4]: 2 | d10 [1, 4]: 2 | d50 [1, 4]: 7 | Span [1, 5]: 1.8 | d50 [1, 5]: 12 | d10 [1, 6]: 7 | d50 [1, 6]: 21 | d90 [1, 6]: 43 | d90 [2, 4]: 16 | d10 [2, 5]: 4 | d90 [2, 5]: 25 | Span [2, 6]: 1.7 | span, in words ([2]; all antisolvent compositions of Table 2): surprisingly small span
SMILES: CC(=O)[C@H]1CC[C@H]2[C@@H]3CCC4=CC(=O)CC[C@]4(C)[C@H]3CC[C@]12C [progesteron, pregn-4-ene-3,20-dione]

Span [1, 7]: 1.6 | d10 [1, 7]: 3 µm | d50 [1, 7]: 11 µm | d90 [1, 7]: 21 µm | Span [1, 8]: 1.7 | d10 [1, 8]: 3 µm | d90 [1, 8]: 20 µm | Span [1, 9]: 2.5 | d10 [1, 9]: 5 µm | d50 [1, 9]: 16 µm | d90 [1, 9]: 45 µm | Span [1, 10]: 1.9 | d10 [1, 10]: 4 µm | d50 [1, 10]: 10 µm | d90 [1, 10]: 23 µm | Span [1, 11]: 2.9 | d10 [1, 11]: 2 µm | d50 [1, 11]: 7 µm | d90 [1, 11]: 22 µm | Span [1, 12]: 2.8 | d10 [1, 12]: 2 µm | d50 [1, 12]: 8 µm | d90 [1, 12]: 24 µm | Span [1, 13]: 1.9 | d10 [1, 13]: 12 µm | d50 [1, 13]: 42 µm | d90 [1, 13]: 90 µm | Span [1, 14]: 3 | d10 [1, 14]: 2 µm | d50 [1, 14]: 9 µm | d90 [1, 14]: 29 µm | d90 [1, 15]: 20 μm | d50 [2, 8]: 10 µm | Span [2, 15]: 1.7 | d10 [2, 15]: 3 μm | d50 [2, 15]: 10 μm
SMILES: C#C[C@]1(O)CC[C@H]2[C@@H]3CCC4=CC(=O)CC[C@@H]4[C@H]3C(=C)C[C@@]21CC [3-ketodesogestrel, (17alfa)-17-hydroxy-13-ethyl-11-methylene-18,19-dinorpregn-4-en-20-yn-3-one]

SMILES: C#CC1(O)CCC2C3C(CCC21C)C1=C(CC(=O)CC1)C[C@H]3C (stereo partly shown) [tibolone, (7alfa, 17alfa)-17-hydroxy-7-methyl-19-nor-pregn-5(10)-en-20-yn-3-one]
d10 [1, 16]: 3.8 μm | d50 [1, 16]: 18.2 μm | d90 [2, 16]: 51.3 μm

Source: US20130131029A1, “ANTISOLVENT SOLIDIFICATION PROCESS” (MSD Oss B.V., priority 2005, published 2013)
